Measured values published in ChEMBL document CHEMBL4000233, “Synthesis and evaluation of 5-(1H-indol-3-yl)-N-aryl-1,3,4-oxadiazol-2-amines as Bcl-2 inhibitory anticancer agents” (Bioorg Med Chem Lett, 2017).

Assays:
KG-1a = test: Cytotoxicity against human KG1a cells assessed as growth inhibition after 24 hrs by CellTiter Blue assay; type: functional, cell-based
HeLa = test: Cytotoxicity against human HeLa cells assessed as growth inhibition after 72 hrs by MTT assay; type: functional, cell-based
MDA-MB-231 = test: Cytotoxicity against human MDA-MB-231 cells assessed as growth inhibition after 72 hrs by MTT assay; type: functional, cell-based; details: MDA-MB-231, 72 h
[1] = biological target: Apoptosis regulator Bcl-2 (Homo sapiens, UniProt P10415); test: Inhibition of biotinylated Bim peptide binding to His-tagged Bcl-2 (unknown origin) preincubated for 1 hr followed by biotinylated Bim peptide addition measured after 2 hrs by ELISA
Jurkat = test: Cytotoxicity against human Jurkat cells assessed as growth inhibition after 24 hrs by CellTiter Blue assay; type: functional, cell-based

Sequence of Apoptosis regulator Bcl-2 (P10415 whole entry): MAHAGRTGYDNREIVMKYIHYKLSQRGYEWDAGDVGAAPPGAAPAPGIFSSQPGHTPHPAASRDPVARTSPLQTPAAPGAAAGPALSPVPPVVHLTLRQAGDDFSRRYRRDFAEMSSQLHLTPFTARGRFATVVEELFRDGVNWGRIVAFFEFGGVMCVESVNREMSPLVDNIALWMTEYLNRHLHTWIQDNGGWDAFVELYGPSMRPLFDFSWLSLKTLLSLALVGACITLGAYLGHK

IC50 [1] [µM]	Structure (SMILES)	IC50 (KG-1a) [µM]	IC50 (HeLa) [µM]	IC50 (MDA-MB-231) [µM]	IC50 (Jurkat) [µM]
21.1	Cc1ccc(Nc2nnc(-c3c[nH]c4ccccc34)o2)cc1	4	15.8	27.2	> 100
3.83	O=[N+]([O-])c1ccc(Nc2nnc(-c3c[nH]c4ccccc34)o2)cc1	0.89	1.76	3.54	45
0.66	Clc1cccc(Nc2nnc(-c3c[nH]c4ccccc34)o2)c1	32.7	5.6	8.89	> 100
	O=[N+]([O-])c1cccc(Nc2nnc(-c3c[nH]c4ccccc34)o2)c1	25.5	15.1	34.6	> 100
	c1ccc(CNc2nnc(-c3c[nH]c4ccccc34)o2)cc1	> 100	7.81	6.47	> 100
29	COc1ccc(Nc2nnc(-c3c[nH]c4ccccc34)o2)cc1	0.82	5.82	10.1	> 100
	Clc1ccc(Nc2nnc(-c3c[nH]c4ccccc34)o2)cc1	3.16	3.8	9.77	30.2
	Fc1ccc(Nc2nnc(-c3c[nH]c4ccccc34)o2)cc1	21.1	> 100	> 100	> 100
	Clc1ccc(Nc2nnc(-c3c[nH]c4ccccc34)o2)cc1Cl	45.3	19.3	31.1	> 100
1.24	O=[N+]([O-])c1ccccc1Nc1nnc(-c2c[nH]c3ccccc23)o1	0.85	0.3	0.9	30.2
